From a melting point compilation (Tetko et al.; mined from patent text by program, amines drawn as free bases though some values may be those of a salt)

First: CC(C)CC1(C(CCN2C(=O)c3cccc(F)c3C2=O)C(=O)NO)CCN(CCc2ccccc2)C1=O (centres undefined)
Second: O=C(OCc1ccccc1)C1C(=O)N(Cc2ccc(Cl)c(Cl)c2)C(=O)c2cccn21 (centres undefined)
The melting point of the first is higher: 145 to 146 °C for the first, 104 to 106 °C for the second.

First: CCOC(=O)c1nc(-c2ccc(Cl)c(OC)c2F)cc(N)c1Cl
Second: COC(=O)c1c(Cl)cc(Cl)c2ccc(Cl)cc12
The melting point of the first is lower: 74 to 75 °C for the first, 113 to 115 °C for the second.

First: COCc1ccc(-c2ncccc2S(=O)(=O)Nc2ncc(C)nc2OC)cc1
Second: CCCCc1nc2c(N)nc3ccccc3c2n1CCCNS(=O)(=O)c1ccc(C)cc1
The melting point of the first is lower: 129 to 130 °C for the first, 197 to 198 °C for the second.

`Oc1cc(-c2nn3c(c2Cl)CCCC3)c(F)cc1Cl` and `CCOC(=O)c1cn(CC)c2cc(N3CCN(C)CC3)c(F)cc2c1=O` cannot be ordered by melting point: 177 to 178 °C for the first, 176 to 179 °C for the second.

Compared with `CC(C(=O)c1c(O)c2cccnc2n(-c2cccc(C(F)(F)F)c2)c1=O)c1ccccc1` (centres undefined), `CSc1ccc(-c2cc(-n3ccc(C(F)(F)F)n3)c3ccccc3n2)cc1` is lower in melting point: 200 to 201 °C for the first, 116 to 118 °C for the second.

Compared with `O=C(Nc1ccccn1)Nc1cnns1`, `CC(C)C(NC(=O)OCc1ccccc1)C(=O)Nc1nncs1` (racemic) is lower in melting point: 227 °C for the first, 162 to 164 °C for the second.

Going from `O=C(O)Cc1c[nH]c2cc(C3CC3)nn2c1=O` to `CCOC(=O)CC1=NN(c2ccc(C(=O)O)cc2)C(=O)C1`, the melting point falls from over 300 °C to 246 °C.

First: Cc1oc(-c2ccccc2)nc1C(=O)COc1ccc(C=C2SC(=O)NC2=O)cc1
Second: Cc1oc(-c2ccccc2)nc1COc1ccc(CN(O)C(N)=O)cc1
The melting point of the first is higher: 244 to 245 °C for the first, 157 to 159 °C for the second.

First: COc1ccc2[nH]c3c(c2c1)CC(=O)Nc1cccnc1-3
Second: COc1ccc2c(c1)CCC1CC(=O)N(c3ccccn3)N=C21 (centres undefined)
The melting point of the first is higher: over 330 °C for the first, 194 to 196 °C for the second.

First: C=CCc1cc2c(c(CC=C)c1OC1CCCCO1)CCC(=O)N2CCC#N (centres undefined)
Second: COc1ccc(C2=CCC(=O)CC2)c2c1OCCO2
The melting point of the first is higher: 93 to 94 °C for the first, 56 to 59 °C for the second.

First: CCS(=O)(=O)c1ccc(SC2SCC(OC(C)=O)C(OC(C)=O)C2OC(C)=O)cc1 (centres undefined)
Second: CC(=O)Nc1ccc(SC2SCC(O)C(O)C2O)cc1 (centres undefined)
The melting point of the first is lower: 136 to 137 °C for the first, 226 to 233 °C for the second.

First: CCCCCCCCCCCCCCCC(=O)OCc1cc2c(s1)-c1ccccc1OC2c1ccccc1 (centres undefined)
Second: CCCCCCCCCCCCCCCCCCOc1cccc(NCC(=O)O)c1
The melting point of the first is lower: 64 to 65 °C for the first, 92 °C for the second.

Compared with `N#Cc1ccc(C(=C2CCCCCC2)c2ccc(O)cc2)cc1`, `CCN1CCC2(CC1)COc1cc3c(cc12)N(C(=O)c1ccc(-c2ccc(C(=O)NN)cc2C)cc1)CC3` is higher in melting point: 110 to 111 °C for the first, 222 to 225 °C for the second.

First: COc1ccc2cc3c(N)nn(CCN4CCOCC4)c3nc2c1
Second: CCOC(=O)Cc1ccc(OCCN2CCN(c3cc(Cl)nnc3Cl)CC2)cc1
The melting point of the first is higher: 166 to 168 °C for the first, 128 to 130 °C for the second.

Compared with `COC(=O)c1ccc(-c2ccncc2)c(C)c1`, `COC(=O)c1ccc(=O)n(CCN(C)C(=O)c2cccnc2)c1` is higher in melting point: 70 to 71 °C for the first, 120 to 122 °C for the second.

`CC(C)[C@H](NC(=O)c1ccccc1)C(=O)NCC(=O)N[C@@H](CCCNC(=N)N)C(=O)Nc1ccc2ncccc2c1` and `O=C(O)CCC(=O)Nc1cccc2ccccc12` fall in the same range of melting point: 167 to 169 °C for the first, 167 to 169 °C for the second.

Compared with `Cc1cc(O)c2c3c(oc(=O)c2c1)C(=O)c1c(O)cccc1C3=O`, `COc1ccc(OC)c(C=CC(=O)Nc2cnc3c(C)cc(C)cc3c2-c2ccccc2Cl)c1` is lower in melting point: 236 to 238 °C for the first, 209 to 210 °C for the second.

First: O=C1COc2ccc(C3=Cc4cc(F)ccc4SC3)cc2N1
Second: CC1(C)OC(=O)Nc2ccc(-c3cccc(C#N)c3)cc21
The melting point of the first is lower: 229 to 234 °C for the first, 236 to 237 °C for the second.

First: Cc1ccc2c(c1)cc(C(=O)OCc1ccccc1)n2CC(=O)OC(C)(C)C
Second: Cc1cccc(NC(=O)NCC(=O)N(CC(=O)OC(C)(C)C)c2ccc3c(c2)OCO3)c1
The melting point of the first is lower: 80 to 82 °C for the first, 142 °C for the second.

First: CCCc1c(OCCCCCOc2ccc(C(=O)CCC(=O)O)cc2CCC(=O)O)ccc2c1OCCC2=O
Second: C=C(COc1ccc(C(=O)CCC(=O)O)cc1)COc1ccc(C(C)=O)c(O)c1CCC
The melting point of the first is higher: 182 to 184 °C for the first, 136 to 137 °C for the second.

First: O=c1ccn(-c2cccc(OC(F)F)c2)nc1-c1ccnn1-c1ccccc1
Second: CC(C)n1cc(-c2ccc(Oc3ccccc3)cc2)c2c(N)ncnc21
The melting point of the first is higher: 159 to 160 °C for the first, 155 to 156 °C for the second.

First: C=CC(OC(C)OCC)C(NC(=O)OC(C)(C)C)c1ccccc1 (centres undefined)
Second: Cc1c(NC(=O)NCC(C)O)c(C)c2c(c1-c1ccccc1)OCC2c1ccc(C(C)C)cc1 (centres undefined)
The melting point of the first is lower: 66 to 72 °C for the first, 171 to 182 °C for the second.

Compared with `COc1ccc([C@@H]2Sc3ccccc3N(CCN(C)C)C(=O)[C@@H]2OC(=O)c2ccc([N+](=O)[O-])cc2)cc1`, `COc1ccc([C@@H]2Sc3cc(Oc4ccc5c(c4)OCO5)ccc3NC(=O)[C@@H]2O)cc1` is higher in melting point: 113 to 114 °C for the first, 188 °C for the second.

First: CC(=Cc1c2n(c3ccncc13)CCC2)[N+](=O)[O-]
Second: CSc1c2n(c3ccccc13)CCC2N(O)C(N)=O (centres undefined)
The melting point of the first is lower: 141 to 142 °C for the first, 178 °C for the second.

Going from `Cc1c(Cl)cccc1S(=O)O` to `Cc1c(Cc2cnc[nH]2)cccc1NS(C)(=O)=O`, the melting point rises from 112 °C to 224 °C.

First: O=C(Nc1nccs1)C(CC1CCCC1)c1ccc(-c2ccccc2)cc1 (centres undefined)
Second: CC(OCCc1ccc(-c2ccc(Cl)cc2)cc1)C(=O)O (centres undefined)
The melting point of the first is lower: 57 to 58 °C for the first, 90 to 92 °C for the second.

First: CC(=O)c1c(O)cccc1OCC(O)COc1cc(C)ccc1C (centres undefined)
Second: Cc1ccc(C(Cn2ccnc2)C(=O)c2ccc(Cl)cc2Cl)cc1 (centres undefined)
The melting point of the first is higher: 104 to 106 °C for the first, 92 to 96 °C for the second.

Compared with `COC(=O)CCc1ccccc1Cc1ccccc1C(=O)O`, `CCOC(=O)c1cnn2c1c(N1CCN(c3ccccc3)CC1)nc1ccccc12` is higher in melting point: 123 to 126 °C for the first, 134 to 135 °C for the second.

First: CNc1nnc(-c2ccc3occ(-c4cccc(OC(F)(F)F)c4)c3c2)o1
Second: O=C(Nc1ccc(SC(F)(F)F)cc1)c1cc(Cl)c2ccccc2c1O
The melting point of the first is lower: 169 to 170 °C for the first, 172 to 175 °C for the second.

First: C#Cc1cnc2ccc(OC(SC)C(=O)NC(C)(C#C)CO)cc2c1 (centres undefined)
Second: CCC(=O)c1ccc(SC)cn1
The melting point of the first is higher: 149 to 150 °C for the first, 52 to 53 °C for the second.

First: CCCCCCCCCCCC(CC(=O)NC(CCCNC(=O)OCc1ccccc1)COC1CCCCO1)OCc1ccccc1 (centres undefined)
Second: CCCCCCCCCCCCCCOCC(O)CO (centres undefined)
The melting point of the first is higher: 84 to 86 °C for the first, 56 to 57 °C for the second.

Compared with `COc1ccc(C(N)CN)cc1` (centres undefined), `COC(=O)C(C(=O)OC)C(Cc1c(N)cccc1C(F)(F)F)c1ccc(OC)cc1` (centres undefined) is higher in melting point: 64 °C for the first, 111 to 113 °C for the second.

Compared with `COc1cc(CCCCC#CCCCC#CCO)c(O)c2ccccc12`, `CCCc1c(COc2ccc(C(=O)CCCCCCc3nnn[nH]3)cc2)ccc(C(C)=O)c1O` is higher in melting point: 85 to 87 °C for the first, 134 to 137 °C for the second.

Compared with `CCc1nc2ccc(N=C=S)cc2s1`, `CCCC(=O)NCc1c(-c2ccc(C)cc2)nc2ccc3ccccc3n12` is higher in melting point: 69 to 73 °C for the first, 238 to 239 °C for the second.

Compared with `N#Cc1c(N2CCN(C(=O)c3ccco3)CC2)c2cccnc2n(Cc2ccccc2)c1=O`, `COc1cc(C(=O)N2CCC(CCN3CCCN(c4nc5ccccc5n4CCOCC#N)CC3)(c3ccccc3)C2)cc(OC)c1OC` (centres undefined) is lower in melting point: 206 °C for the first, 134 to 148 °C for the second.

First: CC(C)Oc1ccc(NC(=S)NCc2ccoc2)cc1
Second: O=C1NC(=O)C(Cc2ccc3nc(Cc4ccc(Cl)cc4)oc3c2)S1 (centres undefined)
The melting point of the first is lower: 89 to 90 °C for the first, 220 °C for the second.

First: COc1nsc(NC(=O)CBr)n1
Second: CCOC(=O)CN1C(=O)COc2c(Cl)nc(C)nc21
The melting point of the first is higher: 198 to 199 °C for the first, 69 to 70 °C for the second.

Compared with `Nc1nc(N)nc(-c2ccc(Sc3ccccc3)cc2)n1`, `ClCc1csc(/C=C/c2ccccc2)n1` is lower in melting point: 213 to 215 °C for the first, 88 to 89 °C for the second.

Compared with `CCc1cc(N(Cc2ccc(-c3ccccc3-c3nnn(C(c4ccccc4)(c4ccccc4)c4ccccc4)n3)cc2)C(C)=O)cc(CC)n1`, `CN1CCOc2ccc(S(=O)(=O)n3c(Cc4ccc(C(=O)O)cc4)cc4c(Cl)cccc43)cc21` is higher in melting point: 98 to 102 °C for the first, 236 °C for the second.

First: O=C1N(CCCCN2CCN(c3n[nH]c4ccccc34)CC2)CSC12CCCC2
Second: O=CN1CCC(C(=O)N2CCN3C(=O)OC(c4ccccc4)(c4ccccc4)C3C2)CC1 (centres undefined)
The melting point of the first is higher: 166 to 168 °C for the first, 133 to 136 °C for the second.

First: COc1cccc(OC)c1C(=O)P(=O)(C(=O)c1c(OC)cccc1OC)c1ccccc1
Second: O=C(c1cc2cc([N+](=O)[O-])ccc2[nH]1)N1CC(CCl)c2c1cc([N+](=O)[O-])c1ccccc21 (centres undefined)
The melting point of the first is lower: 155 °C for the first, over 300 °C for the second.

Compared with `CCOC(=O)C1CCCN2CCC3c4cc(Cl)ccc4N(N)C3C12` (centres undefined), `O=[N+]([O-])c1cc(Cl)ccc1CBr` is lower in melting point: 172 to 175 °C for the first, 42 to 43 °C for the second.

Compared with `Nc1cc(C(=O)O)cc(S(N)(=O)=O)c1Nc1ccc(Cl)cc1`, `O=C(O)[C@H]1C[C@H](NCc2ccccc2)c2c(Cl)cc(Cl)cc2N1` (relative stereo) is lower in melting point: 273 to 274 °C for the first, 112 to 114 °C for the second.

First: C=C1C(=CC=C2CCCC3(C)C2CCCC3C(C)CCCC(C)(C)O)CC(O)CC1O (centres undefined)
Second: CCOC(=O)C=CC(C)=CC=C(C)C=CC1=C(C)CCCC1(C)C
The melting point of the first is higher: 124 to 127 °C for the first, 65 to 66 °C for the second.

`O=c1[nH]c(=O)c2cc(Oc3ccc(F)cc3F)ncc2[nH]1` and `O=c1[nH]c2cc(Cl)c(Cl)c(-c3ccncc3)c2[nH]c1=O` cannot be ordered by melting point: over 300 °C for the first, over 300 °C for the second.

Compared with `CCOC(=O)CNc1ncccc1[N+](=O)[O-]`, `COCn1nc(N)c2cc(S(=O)(=O)C(C)C)cc(OCCc3ccccn3)c21` is higher in melting point: 38 to 39 °C for the first, 140 to 142 °C for the second.

Compared with `CN(C)c1cc(C(F)(F)F)cc(Cl)c1-n1nc(C#N)c(S(=O)(=O)C(F)(F)F)c1N`, `CON1CCC2(CC1)C(O)=C(c1c(C)cc(C)cc1C)C(=O)N2O` is lower in melting point: 197 °C for the first, 152 to 154 °C for the second.

First: C=CCSC(=S)c1cc(C(C)(C)C)c(O)c(C(C)(C)C)c1
Second: C#Cc1cn(C2CC(O)C(CO)O2)c(=O)n(C(=O)c2ccc(C)cc2)c1=O (centres undefined)
The melting point of the first is lower: 93 to 95 °C for the first, 176 to 179 °C for the second.

First: C(=CCN(CC1CCCCC1)CC1CCCCC1)CN(CC1CCCCC1)CC1CCCCC1
Second: CCCCCCCCCCCCCCC(O)=S
The melting point of the first is higher: 72 to 73 °C for the first, 60 to 62 °C for the second.

For `O=C1CCC(c2cc3c(s2)CC(NS(=O)(=O)c2ccccc2)CC3)=NN1` (centres undefined), the melting point was 230 to 232 °C.
